Results: patent US9969694B2, “N-(arylalkyl)-N′-pyrazolyl-urea, thiourea, guanidine and cyanoguanidine compounds as TrkA kinase inhibitors” (Array BioPharma Inc., priority 2012, dated 2018)

Molecular target: T1, His-tagged recombinant human TrkA (Homo sapiens, UniProt P04629)
T1 construct: 6HIS tagged cytoplasmic domain from Invitrogen, Catalog No. PV3144; purchased Invitrogen PV3144
Test: TrkA Kinase Binding Assay (LanthaScreen Eu)
Conditions: averaged IC50; TR-FRET binding, 60 min, 22° C.; read-out: TrkA Enzyme IC50
How it was run: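 TR-FRET tracer displacement: 5 nM His-tagged TrkA cytoplasmic domain with 4 nM Tracer 236, biotinylated anti-His and Eu-streptavidin in pH 7.5 MOPS buffer, 2% DMSO, 60 min at 22 °C. 665/615 nm emission ratio gave percent of control; IC50 from four-parameter fit.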

T1 sequence (P04629 440-796 limits assumed): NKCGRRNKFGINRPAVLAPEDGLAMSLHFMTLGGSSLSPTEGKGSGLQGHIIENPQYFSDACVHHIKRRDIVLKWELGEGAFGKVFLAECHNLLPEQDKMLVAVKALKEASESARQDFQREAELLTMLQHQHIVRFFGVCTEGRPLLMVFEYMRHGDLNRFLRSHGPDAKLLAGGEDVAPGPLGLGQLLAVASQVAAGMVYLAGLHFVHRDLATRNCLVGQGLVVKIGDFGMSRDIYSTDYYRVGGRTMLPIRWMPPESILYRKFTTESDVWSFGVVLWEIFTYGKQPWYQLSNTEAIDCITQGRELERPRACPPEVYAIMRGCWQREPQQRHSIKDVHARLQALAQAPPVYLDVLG

With `COCc1ccc(OC(F)(F)F)c(CNC(=O)Nc2c(C)c(OC3CC4(CCN4)C3)nn2-c2ccccc2)c1` (stereo not shown) [Example 90, 1-(3-(1-azaspiro[3.3]heptan-6-yloxy)-4-methyl-1-phenyl-1H-pyrazol-5-yl)-3-(5-(methoxymethyl)-2-(trifluoromethoxy)benzyl)urea] the IC50 was < 100 nM.

For `COCc1ccc(-c2ccccc2)c(CNC(=O)Nc2c(C)c(-c3cnn(C)c3)nn2-c2ccccc2)c1` [Example 116, 1-(1′,4-dimethyl-1-phenyl-1H,1′H-[3,4′-bipyrazol]-5-yl)-3-((4-(methoxymethyl)-[1,1′-biphenyl]-2-yl)methyl)urea], the IC50 was < 100 nM.

`COCc1ccc(OC(F)(F)F)c(CNC(=O)Nc2c(C)c(OC[C@@H]3CCC(=O)N3)nn2-c2ccccc2)c1` [Example 131, (S)-1-(5-(methoxymethyl)-2-(trifluoromethoxy)benzyl)-3-(4-methyl-3-((5-oxopyrrolidin-2-yl)methoxy)-1-phenyl-1H-pyrazol-5-yl)urea] was tested, and the IC50 was < 100 nM.

`COCc1ccc(OC(F)(F)F)c(CNC(=O)Nc2c(C)c(OC[C@H]3CCNC[C@H]3F)nn2-c2ccccc2)c1` [Example 88, 1-(3-(((3S,4R)-3-fluoropiperidin-4-yl)methoxy)-4-methyl-1-phenyl-1H-1-pyrazol-5-yl)-3-(5-(methoxymethyl)-2-(trifluoromethoxy)benzyl)urea 2,2,2-trifluoroacetate] was tested, and the IC50 was < 100 nM.

In the case of `COCc1ccc(OC(F)(F)F)c(CNC(=O)Nc2c(C)c(OC[C@@H]3COCCN3)nn2-c2ccccc2)c1` [Example 103, (S)-1-(5-(methoxymethyl)-2-(trifluoromethoxy)benzyl)-3-(4-methyl-3-(morpholin-3-ylmethoxy)-1-phenyl-1H-pyrazol-5-yl)urea], the IC50 is reported as < 100 nM.

For `COCc1ccc(OC(F)(F)F)c(CNC(=O)Nc2c(C)c(OCC3CCNC3)nn2-c2ccccc2)c1` (stereo not shown) [Example 71], the IC50 was < 100 nM.

With `CCOc1nn(-c2ccccc2)c(NC(=O)NCc2cc(COC)ccc2C2CC2)c1C` [Example 2, 1-(2-cyclopropyl-5-(methoxymethyl)benzyl)-3-(3-ethoxy-4-methyl-1-phenyl-1H-pyrazol-5-yl)urea] the IC50 was < 100 nM.

For `COCc1ccc(OC(F)(F)F)c(CNC(=O)Nc2c(C)c(-c3ccc(OC)nc3)nn2-c2ccccc2)c1` [Example 53, 1-(5-(methoxymethyl)-2-(trifluoromethoxy)benzyl)-3-(3-(6-methoxypyridin-3-yl)-4-methyl-1-phenyl-1H-pyrazol-5-yl)urea], the IC50 was < 100 nM.

`COCc1ccc(C2CCC2)c(CNC(=O)Nc2c(C)c(-c3ccc(=O)n(C)c3)nn2-c2ccccc2)c1` [Example 9, 1-(2-cyclobutyl-5-(methoxymethyl)benzyl)-3-(4-methyl-3-(1-methyl-6-oxo-1,6-dihydropyridin-3-yl)-1-phenyl-1H-pyrazol-5-yl)urea] was tested, and the IC50 was < 100 nM.

`COCc1ccc(C2(F)COC2)c(CNC(=O)Nc2c(C)c(-c3ccc(C)nc3)nn2-c2ccccc2)c1` [Example 32, 1-(2-(3-fluorooxetan-3-yl)-5-(methoxymethyl)benzyl)-3-(4-methyl-3-(6-methylpyridin-3-yl)-1-phenyl-1H-pyrazol-5-yl)urea] gave an IC50 of 100 to 1000 nM.
